# Reference: US20250144067A1, “PERSONALIZED STARVATION THERAPY FOR CANCER” (Faeth Therapeutics, Inc., priority 2021, published 2025)
# Where a name gives a salt, the structure may show the parent alone.
# What was measured:
# [1] = test system: NCI-H292 lung cancer cells; experiment: FDA drug screening, complete media vs cholesterol-free media without statin (TABLE 1); format: cell-based, human
# [2] = test system: NCI-H292 lung cancer cells; experiment: FDA drug screening, complete media vs cholesterol-free media with simvastatin (TABLE 2); format: cell-based, human; conditions: for Cholesterol-free media + simvastatin (0.04 μM) / Complete Media: NCI-H292 cells
# [3] = NCI-H292 cells in cholesterol-free media without statin
# [4] = NCI-H292 cells in complete media
# [5] = NCI-H292 cells, cholesterol-free media without statin, FDA drug library screen
# [6] = NCI-H292 cells, complete media, FDA drug library screen
# [7] = FDA drug library screen, cholesterol-free media with simvastatin 0.04 μM
# [8] = FDA drug library screen, complete media
# [9] = complete media vs cholesterol-free media + simvastatin (0.04 μM), >0 enhanced anti-cancer activity, about 0 neutral, <0 antagonist
# [10] = Complete minus Cholesterol-free, >0 enhanced anti-cancer activity, about 0 neutral, <0 antagonist
# [11] = complete media minus cholesterol-free media + simvastatin, >0 enhanced anti-cancer activity, about 0 neutral, <0 antagonist
# [12] = NCI-H292 cells, cholesterol-free media without statin
# [13] = Complete minus Cholesterol-free, greater than 0 enhanced anti-cancer activity, about 0 neutral, below 0 antagonist
# [14] = NCI-H292 cells, FDA drug library screen, cholesterol-free media without statin
# [15] = NCI-H292 cells, FDA drug library screen, complete media
# [16] = cholesterol-free media with simvastatin 0.04 μM, FDA drug library screen (TABLE 2)
# [17] = complete media, FDA drug library screen (TABLE 2)
# [18] = complete media minus cholesterol-free media + simvastatin (0.04 μM), >0 enhanced anti-cancer activity, about 0 neutral, <0 antagonist
# [19] = drug in cholesterol-free media with simvastatin 0.04 μM
smiles,measurement,setting,value
C=CC[C@]1(O)CC[C@H]2[C@@H]3CCC4=CCCC[C@@H]4[C@H]3CC[C@@]21C [Allylestrenol],Difference,"[1]; Complete minus Cholesterol-free, […]",−0.56
same,Cholesterol-free,[1]; [3],1.739
same,Complete,[1]; [4],1.181
same,Cholesterol-free media + simvastatin (0.04 μM),"[2]; cholesterol-free media with simvastatin 0.04 μM, […]",1.288
same,Complete Media,"[2]; complete media, […]",1.384
same,Difference,"[2]; complete media minus cholesterol-free media + simvastatin, […]",0.10
C=CCNc1nc(NCC=C)nc(N2CCN(C(c3ccc(F)cc3)c3ccc(F)cc3)CC2)n1 [Almitrine mesylate],Cholesterol-free,[1]; [5],0.7257
same,Complete,[1]; [6],0.8177
same,Difference,"[1]; complete vs cholesterol-free media, >0 enhanced anti-cancer activity, about 0 neutral, <0 antagonist",0.09
same,Cholesterol-free media + simvastatin (0.04 μM),[2]; [7],0.7616
same,Complete Media,[2]; [8],0.6708
same,Difference,[2]; [9],−0.09
C=CC(=O)Nc1cc(Nc2nccc(-c3cn(C4CC4)c4ccccc34)n2)c(OC)cc1N(C)CCN(C)C [Almonertinib (hydrochloride)],Difference,[1]; [10],−0.07
same,Cholesterol-free,[1]; [5],0.4284
same,Complete,[1]; [6],0.3618
same,Cholesterol-free media + simvastatin (0.04 μM),"[2]; cholesterol-free media with simvastatin 0.04 μM, cell growth value in FDA drug screen",0.6861
same,Complete Media,"[2]; complete media, cell growth value in FDA drug screen",0.7198
same,Difference,[2]; [11],0.03
C=CC(=O)Nc1cc(Nc2nccc(-c3cn(C4CC4)c4ccccc34)n2)c(OC)cc1N(C)CCN(C)C [Almonertinib],Difference,[1]; [10],−0.19
same,Cholesterol-free,[1]; [12],0.4646
same,Complete,"[1]; NCI-H292 cells, complete media",0.2735
same,Cholesterol-free media + simvastatin (0.04 μM),[2]; [7],0.4298
same,Complete Media,[2]; [8],0.2855
same,Difference,[2]; [9],−0.14
Cn1c(=O)cc(N2CCC[C@@H](N)C2)n(Cc2ccccc2C#N)c1=O.O=C(O)c1ccccc1 [Alogliptin (Benzoate)],Difference,[1]; [13],−0.08
same,Cholesterol-free,[1]; [14],0.8854
same,Complete,[1]; [15],0.8074
same,Cholesterol-free media + simvastatin (0.04 μM),[2]; [7],1.087
same,Complete Media,[2]; [8],0.9402
same,Difference,[2]; [9],−0.15
Cc1[nH]cnc1CN1CCc2c(c3ccccc3n2C)C1=O [Alosetron (Hydrochloride)],Difference,[1]; [10],0.05
same,Cholesterol-free,[1]; [5],1.398
same,Complete,[1]; [6],1.45
same,Cholesterol-free media + simvastatin (0.04 μM),[2]; [7],0.9241
same,Complete Media,[2]; [8],0.826
same,Difference,[2]; [9],−0.10
Cc1nc(NC(=O)N2CCC[C@H]2C(N)=O)sc1-c1ccnc(C(C)(C)C(F)(F)F)c1 [Alpelisib],Difference,[1]; [10],0.04
same,Cholesterol-free,[1]; [5],0.497
same,Complete,[1]; [6],0.5335
same,Cholesterol-free media + simvastatin (0.04 μM),[2]; [16],0.5514
same,Complete Media,[2]; [17],0.5502
same,Difference,[2]; [18],0.00
C[C@]12CC[C@@H]3c4ccc(O)cc4CC[C@H]3[C@@H]1CC[C@H]2O [Alpha-Estradiol],Difference,[1]; [13],−0.14
same,Cholesterol-free,[1]; [14],0.998
same,Complete,[1]; [15],0.8561
same,Cholesterol-free media + simvastatin (0.04 μM),[2]; [7],1.11
same,Complete Media,[2]; [8],1.408
same,Difference,[2]; [11],0.30
C=CCc1ccccc1OCC(O)CNC(C)C (centres unmarked) [Alprenolol (hydrochloride)],Difference,[1]; [13],−0.15
same,Cholesterol-free,[1]; [14],1.198
same,Complete,[1]; [15],1.044
same,Cholesterol-free media + simvastatin (0.04 μM),[2]; [7],1.228
same,Difference,[2]; [9],−0.08
CN(C)c1nc(N(C)C)nc(N(C)C)n1 [Altretamine],Difference,[1]; [10],−0.04
same,Cholesterol-free,[1]; [5],0.9853
same,Complete,[1]; [6],0.9434
same,Cholesterol-free media + simvastatin (0.04 μM),[2]; [19],1.135
same,Complete Media,[2]; drug in complete media,0.9636
same,Difference,[2]; [9],−0.17
C[C@H]1CN(C[C@H](Cc2ccccc2)C(=O)NCC(=O)O)CC[C@@]1(C)c1cccc(O)c1 [Alvimopan (dihydrate)],Difference,"[1]; Complete minus Cholesterol-free, greater than 0 enhanced anti-cancer activity, about 0 neutral, below 0 antagonists",−1.02
same,Cholesterol-free,[1]; [3],1.958
same,Complete,[1]; [4],0.9383
same,Cholesterol-free media + simvastatin (0.04 μM),[2]; FDA library drug in cholesterol-free media with simvastatin 0.04 μM,1.255
same,Complete Media,[2]; FDA library drug in complete media,0.9864
same,Difference,[2]; [9],−0.27
NC12CC3CC(CC(C3)C1)C2 [Amantadine (hydrochloride)],Cholesterol-free,[1]; [5],0.9565
same,Complete,[1]; [6],1.419
same,Difference,"[1]; complete vs cholesterol-free media, […]",0.46
same,Cholesterol-free media + simvastatin (0.04 μM),[2]; [19],1.14
same,Complete Media,[2]; drug in complete media,0.9614
same,Difference,"[2]; complete media vs cholesterol-free media + simvastatin (0.04 μM), […]",−0.18
COC(c1ccccc1)(c1ccccc1)[C@H](Oc1nc(C)cc(C)n1)C(=O)O [Ambrisentan],Difference,[1]; [13],−0.16
same,Cholesterol-free,[1]; [14],1.13
same,Complete,[1]; [15],0.9703
same,Cholesterol-free media + simvastatin (0.04 μM),[2]; [7],1.296
same,Complete Media,[2]; [8],1.497
same,Difference,[2]; [11],0.20
Nc1c(Br)cc(Br)cc1CN[C@H]1CC[C@H](O)CC1 [Ambroxol (hydrochloride)],Cholesterol-free,[1]; [12],1.285
same,Complete,"[1]; NCI-H292 cells, complete media",0.8347
same,Difference,"[1]; complete vs cholesterol-free media, greater than 0 enhanced anti-cancer activity, about 0 neutral, below 0 antagonists",−0.45
same,Cholesterol-free media + simvastatin (0.04 μM),[2]; [16],1.005
same,Complete Media,[2]; [17],0.9822
same,Difference,[2]; [18],−0.02
